Values of other authors in US20030040459A1, “Cleaning compositions” (Unilever Home & Pesonal Care USA, priority 2001, published 2003).

Settings: for Water Solubility (g/100 g): at 20° C.

Water Solubility (grams/100 grams water) (grams of solid to form a saturated solution in 100 grams of deionised water at 20° C.) | Compound | Water Solubility (g/100 g)
 | O=P(O)(O)OP(=O)(O)OP(=O)(O)O [Sodium tripolyphosphate anhydrous] | 15 g/100 g
 | O=BO[O-].[Na+] [Sodium perborate anhydrous] | 3.7 g/100 g
>100 grams/100 grams water | NC(N)=O [Urea] | 
